The values below come from patent publication US20110130432A1, “Heterocyclic Carboxamides For Use As Thrombin Inhibitors” (ASTRAZENECA AB, priority 2008, published 2011).

This experiment deals with T1, Human α-thrombin (Homo sapiens, UniProt P00734).
T1 construct: Human α-thrombin; purchased Sigma Chemical Co. or Hematologic Technologies
Briefly: Test A: Determination of Thrombin Inhibition with a Chromogenic, Robotic Assay. The note with it: chromogenic substrate S-2366 0.30 mmol/L, α-thrombin 0.020 NIHU/mL, 40 minutes incubation at 37° C. It counts as biochemical. As for the experimental part: Determination of Thrombin Inhibition with a Chromogenic, Robotic Assay
The thrombin inhibitor potency is measured with a chromogenic substrate method, in a Plato 3300 robotic microplate processor (Rosys AG, CH-8634 Hombrechtikon, Switzerland), using 96-well, half volume microtitre plates (Costar, Cambridge, Mass., USA; Cat No 3690). Stock solutions of test substance in DMSO (72 μL), 0.1-1 mmol/L, are diluted serially 1:3 (24+48 μL) with DMSO to obtain ten different concentrations, which are analyzed as samples in the assay. 2 μL of test sample is diluted with 124 μL assay buffer, 12 μL of chromogenic substrate solution (S-2366, Chromogenix, Mölndal, Sweden) in assay buffer and finally 12 μL of α-thrombin solution (Human α-thrombin, Sigma Chemical Co. or Hematologic Technologies) in assay buffer, are added, and the samples mixed. The final assay concentrations are: test substance […], S-2366 0.30 mmol/L, α-thrombin 0.020 NIHU/mL The linear absorbance increment during 40 minutes incubation at 37° C. is used for calculation of percentage inhibition for the test samples, as compared to blanks without inhibitor. The IC50 value, corresponding to the inhibitor concentration which causes 50% inhibition of the thrombin activity, is calculated from a log concentration vs. % inhibition curve.

As to `O=C(O[C@@H](C(=O)N1N=CC[C@H]1C(=O)NCc1cc(Cl)ccc1-n1cnnn1)c1ccc(F)cc1)c1ccccc1` [Example 29, (1R)-2-[(5S)-5-{[5-Chloro-2-(1H-tetrazol-1-yl)benzyl]carbamoyl}-4,5-dihydro-1H-pyrazol-1-yl]-1-(4-fluorophenyl)-2-oxoethyl benzoate], the IC50 (as a rule, the concentration that inhibits the measured activity by half) came out at 13 nM.

Regarding `CCC(=O)Oc1cc(C)cc(C)c1C(C)(C)CC(=O)O[C@@H](C(=O)N1N=CC[C@H]1C(=O)NCc1cc(Cl)ccc1-n1cnnn1)c1ccc(F)cc1` [Example 30, (R)-2-((S)-5-(5-Chloro-2-(1H-tetrazol-1-yl)benzylcarbamoyl)-4,5-dihydro-1H-pyrazol-1-yl)-1-(4-fluorophenyl)-2-oxoethyl 3-(2,4-dimethyl-6-(propionyloxy)phenyl)-3-methylbutanoate], the IC50 was 660 nM. This IC50 lies about 51-fold higher than the previous one.

`O=C(NCc1cc(Cl)ccc1-n1cnnn1)[C@@H]1CCON1C(=O)[C@H](O)c1ccc(F)cc1` [Example 31, (3S)—N-[5-Chloro-2-(1H-tetrazol-1-yl)benzyl]-2-[(2R)-2-(4-fluorophenyl)-2-hydroxyacetyl]isoxazolidine-3-carboxamide] returned a 50% inhibitory concentration (IC50) of 9.7 nM.

On to `CC(C)(C)OC[C@@H](N)C(=O)N1OCC[C@H]1C(=O)NCc1cc(Cl)ccc1-n1cnnn1` [Example 32, (3S)-2-(O-tert-Butyl-D-seryl)-N-[5-chloro-2-(1H-tetrazol-1-yl)benzyl]isoxazolidine-3-carboxamide], for which the IC50 was found to be 170 nM.

Consider `O=C(NCc1cc(Cl)ccc1-n1cnnn1)[C@@H]1CCON1C(=O)C(O)c1ccc(F)cc1F` (stereo partly drawn) [Example 33, (3S)—N-[5-Chloro-2-(1H-tetrazol-1-yl)benzyl]-2-[(2,4-difluorophenyl)(hydroxy)acetyl]isoxazolidine-3-carboxamide], for which the IC50 was 100 nM.

As for `O=C(NCc1cc(Cl)ccc1-n1cnnn1)[C@@H]1CCON1C(=O)C(O)c1cccc(F)c1F` (stereo partly drawn) [Example 34, (3S)—N-[5-Chloro-2-(1H-tetrazol-1-yl)benzyl]-2-[(2,3-difluorophenyl)(hydroxy)acetyl]isoxazolidine-3-carboxamide], it took 160 nM to reach half-maximal inhibition (IC50).

Molecule `O=C(NCc1cc(Cl)ccc1-n1cnnn1)[C@@H]1CCON1C(=O)C(O)c1cc(F)cc(F)c1` (stereo partly drawn) [Example 35, (3S)—N-[5-Chloro-2-(1H-tetrazol-1-yl)benzyl]-2-[(3,5-difluorophenyl)(hydroxy)acetyl]isoxazolidine-3-carboxamide] had an IC50 of 70 nM.

Molecule `O=C(NCc1cc(Cl)ccc1-n1cnnn1)[C@@H]1CCON1C(=O)C(O)c1ccccc1F` (stereo partly drawn) [Example 36, (3S)—N-[5-Chloro-2-(1H-tetrazol-1-yl)benzyl]-2-[(2-fluorophenyl)(hydroxy)acetyl]isoxazolidine-3-carboxamide] came in with a half-inhibitory concentration (IC50) of 94 nM.

Turning to `Cc1cccc(C(O)C(=O)N2OCC[C@H]2C(=O)NCc2cc(Cl)ccc2-n2cnnn2)c1` (stereo partly drawn) [Example 37, (3S)—N-[5-Chloro-2-(1H-tetrazol-1-yl)benzyl]-2-[hydroxy(3-methylphenyl)acetyl]isoxazolidine-3-carboxamide], the IC50 was 16 nM.

Regarding `CCCC[C@@H](O)C(=O)N1OCC[C@H]1C(=O)NCc1cc(Cl)ccc1-n1cnnn1` [Example 38, (3S)—N-[5-Chloro-2-(1H-tetrazol-1-yl)benzyl]-2-[(2R)-2-hydroxyhexanoyl]isoxazolidine-3-carboxamide], the half-maximal inhibitory concentration (IC50) came out at 43 nM.

Regarding `CC(C)CC[C@@H](O)C(=O)N1OCC[C@H]1C(=O)NCc1cc(Cl)ccc1-n1cnnn1` [Example 39, (3S)—N-[5-Chloro-2-(1H-tetrazol-1-yl)benzyl]-2-[(2R)-2-hydroxy-5-methylhexanoyl]isoxazolidine-3-carboxamide], the IC50 amounted to 13 nM.

`CC(C)(C)OC[C@@H](O)C(=O)N1OCC[C@H]1C(=O)NCc1cc(Cl)ccc1-n1cnnn1` [Example 40, (3S)-2-[(2R)-3-tert-Butoxy-2-hydroxypropanoyl]-N-[5-chloro-2-(1H-tetrazol-1-yl)benzyl]isoxazolidine-3-carboxamide] gave an IC50 of 44 nM.

Molecule `O=C(NCc1cc(Cl)ccc1-n1cnnn1)[C@@H]1CCON1C(=O)[C@H](O)C1CCCC1` [Example 41, (3S)—N-[5-Chloro-2-(1H-tetrazol-1-yl)benzyl]-2-[(2R)-2-cyclopentyl-2-hydroxyacetyl]isoxazolidine-3-carboxamide] displayed an IC50 of 41 nM.

`O=C(NCc1cc(Cl)ccc1-n1cnnn1)[C@@H]1CCON1C(=O)[C@H](O)C1CCCCC1` [Example 42, (3S)—N-[5-Chloro-2-(1H-tetrazol-1-yl)benzyl]-2-[(2R)-2-cyclohexyl-2-hydroxyacetyl]isoxazolidine-3-carboxamide] displayed an IC50 of 21 nM.

Turning to `CC1(C[C@@H](O)C(=O)N2OCC[C@H]2C(=O)NCc2cc(Cl)ccc2-n2cnnn2)CC1` [Example 43, (3S)—N-[5-Chloro-2-(1H-tetrazol-1-yl)benzyl]-2-[(2R)-2-hydroxy-3-(1-methylcyclopropyl)propanoyl]isoxazolidine-3-carboxamide], the IC50 amounted to 68 nM.

Consider `O=C(NCc1cc(Cl)ccc1-n1cnnn1)[C@@H]1CCON1C(=O)[C@H](O)Cc1ccccc1` [Example 47, (3S)—N-[5-Chloro-2-(1H-tetrazol-1-yl)benzyl]-2-[(2R)-2-hydroxy-3-phenylpropanoyl]isoxazolidine-3-carboxamide], for which it took 80 nM to reach half-maximal inhibition (IC50).

For the molecule `N#Cc1cccc(C(O)C(=O)N2OCC[C@H]2C(=O)NCc2cc(Cl)ccc2-n2cnnn2)c1` (stereo partly drawn) [Example 48, (3S)—N-[5-Chloro-2-(1H-tetrazol-1-yl)benzyl]-2-[(3-cyanophenyl)(hydroxy)acetyl]isoxazolidine-3-carboxamide], the IC50 turned out to be 92 nM.

Molecule `O=C(NCc1cc(Cl)ccc1-n1cnnn1)[C@@H]1CCNN1C(=O)C(O)c1ccccc1F` (stereo partly drawn) [Example 50, (3S)—N-[5-Chloro-2-(1H-tetrazol-1-yl)benzyl]-2-[(2-fluorophenyl)(hydroxy)acetyl]pyrazolidine-3-carboxamide] showed an IC50 of 79 nM. This IC50 and that of the molecule before are within 1.5-fold of each other.

Turning to `O=C(NCc1cc(Cl)ccc1-n1cnnn1)[C@@H]1CCNN1C(=O)C(O)c1ccc(F)cc1F` (stereo partly drawn) [Example 51, (3S)—N-[5-Chloro-2-(1H-tetrazol-1-yl)benzyl]-2-[(2,4-difluorophenyl)(hydroxy)acetyl]pyrazolidine-3-carboxamide], the IC50 worked out at 63 nM. This IC50 and that of the molecule before are within 1.5-fold of each other.

Take `O=C(NCc1cc(Cl)ccc1-n1cnnn1)[C@@H]1CCNN1C(=O)[C@H](O)c1ccc(F)cc1` [Example 52, (3S)—N-[5-Chloro-2-(1H-tetrazol-1-yl)benzyl]-2-[(2R)-2-(4-fluorophenyl)-2-hydroxyacetyl]pyrazolidine-3-carboxamide]: it took 8.4 nM to reach half-maximal inhibition (IC50).

With `O=C(NCc1cc(Cl)ccc1-n1cnnn1)[C@@H]1CCNN1C(=O)C1(O)CCOc2ccccc21` (stereo partly drawn) [Example 53, (3S)—N-[5-Chloro-2-(1H-tetrazol-1-yl)benzyl]-2-[(4-hydroxy-3,4-dihydro-2H-chromen-4-yl)carbonyl]pyrazolidine-3-carboxamide], 240 nM corresponded to half-maximal inhibition (IC50).

Take `O=C(NCc1cc(Cl)ccc1-n1cnnn1)[C@@H]1CCNN1C(=O)[C@H](O)C1CCCCC1` [Example 55, (3S)—N-[5-Chloro-2-(1H-tetrazol-1-yl)benzyl]-2-[(2R)-2-cyclohexyl-2-hydroxyacetyl]pyrazolidine-3-carboxamide]: the midpoint of inhibition, the IC50, lay at 8.4 nM.

For the molecule `O=C(NCc1cc(Cl)ccc1-n1cnnn1)[C@@H]1CCNN1C(=O)[C@H](O)Cc1ccccc1` [Example 56, (3S)—N-[5-Chloro-2-(1H-tetrazol-1-yl)benzyl]-2-[(2R)-2-hydroxy-3-phenylpropanoyl]pyrazolidine-3-carboxamide], half-maximal inhibition (IC50) was put at 79 nM. This IC50 lies about 9.4-fold higher than the previous one.
